Active and inactive are the calls of the source.
Tests used:
[1] = system: HepG2; test: Antiproliferative activity against human HepG2 cells assessed as inhibition of cell proliferation at 100 uM after 2 hrs by MTT assay; format: functional; settings: for inhibition at 100 µM: HepG2, 2 h
[2] = system: MCF7; test: Antiproliferative activity against human MCF7 cells assessed as inhibition of cell proliferation at 100 uM after 2 hrs by MTT assay; format: functional; settings: MCF7, 2 h
[3] = target: Signal transducer and activator of transcription 3 (Homo sapiens) (UniProt P40763); test: Inhibition of STAT3-DNA binding in human HepG2 cells at 10 uM after 6 hrs by ELISA based DNA binding assay; format: cell-based
Chain of Signal transducer and activator of transcription 3 (Homo sapiens) (P40763 whole entry): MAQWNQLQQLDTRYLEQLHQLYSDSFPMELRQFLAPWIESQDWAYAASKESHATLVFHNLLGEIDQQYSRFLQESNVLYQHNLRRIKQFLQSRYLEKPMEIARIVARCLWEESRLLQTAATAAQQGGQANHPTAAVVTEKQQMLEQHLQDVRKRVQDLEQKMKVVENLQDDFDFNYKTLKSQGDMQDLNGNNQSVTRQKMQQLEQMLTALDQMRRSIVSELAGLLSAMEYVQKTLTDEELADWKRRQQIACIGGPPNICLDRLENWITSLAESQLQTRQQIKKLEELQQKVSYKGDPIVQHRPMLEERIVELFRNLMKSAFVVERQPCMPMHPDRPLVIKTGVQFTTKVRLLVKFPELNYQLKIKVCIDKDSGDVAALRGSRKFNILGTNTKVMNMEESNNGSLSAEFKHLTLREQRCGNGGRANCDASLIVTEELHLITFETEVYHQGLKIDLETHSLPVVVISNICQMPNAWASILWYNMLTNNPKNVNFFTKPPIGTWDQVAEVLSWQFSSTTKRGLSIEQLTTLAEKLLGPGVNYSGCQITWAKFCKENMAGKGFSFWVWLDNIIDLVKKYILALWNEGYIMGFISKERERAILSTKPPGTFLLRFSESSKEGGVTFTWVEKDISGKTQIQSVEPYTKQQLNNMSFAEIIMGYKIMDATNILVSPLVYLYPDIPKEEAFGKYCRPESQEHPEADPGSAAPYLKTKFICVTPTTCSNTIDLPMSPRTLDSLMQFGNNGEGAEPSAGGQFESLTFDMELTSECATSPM

[4] = system: Hep 3B2; test: Antiproliferative activity against human Hep3B cells assessed as inhibition of cell proliferation at 10 to 100 uM by MTT dye uptake assay; format: functional, cell-based; settings: TDE = time-dependent effect
[5] = system: PLC-PRF-5; test: Antiproliferative activity against human PLC/PRF/5 cells assessed as inhibition of cell proliferation at 10 to 100 uM by MTT dye uptake assay; format: functional, cell-based; settings: TDE = time-dependent effect
[6] = system: Huh-7; test: Antiproliferative activity against human HuH7 cells assessed as inhibition of cell proliferation at 10 to 100 uM by MTT dye uptake assay; format: functional, cell-based; settings: TDE = time-dependent effect
[7] = system: HepG2; test: Antiproliferative activity against human HepG2 cells assessed as inhibition of cell proliferation at 10 to 100 uM by MTT dye uptake assay; format: functional, cell-based; settings: TDE = time-dependent effect
[8] = system: Hep 3B2; test: Antiproliferative activity against human Hep3B cells assessed as inhibition of cell proliferation after 24 to 72 hrs by MTT dye uptake assay; format: functional, cell-based
[9] = system: PLC-PRF-5; test: Antiproliferative activity against human PLC/PRF/5 cells assessed as inhibition of cell proliferation after 24 to 72 hrs by MTT dye uptake assay; format: functional, cell-based
[10] = system: Huh-7; test: Antiproliferative activity against human HuH7 cells assessed as inhibition of cell proliferation after 24 to 72 hrs by MTT dye uptake assay; format: functional, cell-based
[11] = system: HepG2; test: Antiproliferative activity against human HepG2 cells assessed as inhibition of cell proliferation after 24 to 72 hrs by MTT dye uptake assay; format: functional, cell-based
[12] = system: HCCLM3; test: Inhibition of human HCCLM3 cells migration at 10 uM for 6 hrs by wound-healing assay; format: functional, cell-based
[13] = system: HCCLM3; test: Inhibition of human HCCLM3 cells migration at 10 uM for 6 hrs by matrigel invasion assay; format: functional, cell-based
[14] = system: HCCLM3; test: Inhibition of CXCL12-induced human HCCLM3 cells migration pretreated at 10 uM for 6 hrs by wound-healing assay; format: functional, cell-based
[15] = system: HCCLM3; test: Inhibition of CXCL12-induced human HCCLM3 cells migration pretreated at 10 uM for 6 hrs by matrigel invasion assay; format: functional, cell-based
[16] = system: PC-3; test: Antiproliferative activity against human PC3 cells assessed as inhibition of cell proliferation at 10 to 100 uM after 24 to 72 hrs by MTT assay; format: functional, cell-based
[17] = target: Tyrosine-protein kinase JAK2 (Homo sapiens) (UniProt O60674); test: Inhibition of JAk2 activation in human HepG2 cells assessed as inhibition of phosphorylation at 10 uM by Western blot analysis; format: cell-based; settings: TDE = time-dependent effect
Chain of Tyrosine-protein kinase JAK2 (Homo sapiens) (O60674 whole entry): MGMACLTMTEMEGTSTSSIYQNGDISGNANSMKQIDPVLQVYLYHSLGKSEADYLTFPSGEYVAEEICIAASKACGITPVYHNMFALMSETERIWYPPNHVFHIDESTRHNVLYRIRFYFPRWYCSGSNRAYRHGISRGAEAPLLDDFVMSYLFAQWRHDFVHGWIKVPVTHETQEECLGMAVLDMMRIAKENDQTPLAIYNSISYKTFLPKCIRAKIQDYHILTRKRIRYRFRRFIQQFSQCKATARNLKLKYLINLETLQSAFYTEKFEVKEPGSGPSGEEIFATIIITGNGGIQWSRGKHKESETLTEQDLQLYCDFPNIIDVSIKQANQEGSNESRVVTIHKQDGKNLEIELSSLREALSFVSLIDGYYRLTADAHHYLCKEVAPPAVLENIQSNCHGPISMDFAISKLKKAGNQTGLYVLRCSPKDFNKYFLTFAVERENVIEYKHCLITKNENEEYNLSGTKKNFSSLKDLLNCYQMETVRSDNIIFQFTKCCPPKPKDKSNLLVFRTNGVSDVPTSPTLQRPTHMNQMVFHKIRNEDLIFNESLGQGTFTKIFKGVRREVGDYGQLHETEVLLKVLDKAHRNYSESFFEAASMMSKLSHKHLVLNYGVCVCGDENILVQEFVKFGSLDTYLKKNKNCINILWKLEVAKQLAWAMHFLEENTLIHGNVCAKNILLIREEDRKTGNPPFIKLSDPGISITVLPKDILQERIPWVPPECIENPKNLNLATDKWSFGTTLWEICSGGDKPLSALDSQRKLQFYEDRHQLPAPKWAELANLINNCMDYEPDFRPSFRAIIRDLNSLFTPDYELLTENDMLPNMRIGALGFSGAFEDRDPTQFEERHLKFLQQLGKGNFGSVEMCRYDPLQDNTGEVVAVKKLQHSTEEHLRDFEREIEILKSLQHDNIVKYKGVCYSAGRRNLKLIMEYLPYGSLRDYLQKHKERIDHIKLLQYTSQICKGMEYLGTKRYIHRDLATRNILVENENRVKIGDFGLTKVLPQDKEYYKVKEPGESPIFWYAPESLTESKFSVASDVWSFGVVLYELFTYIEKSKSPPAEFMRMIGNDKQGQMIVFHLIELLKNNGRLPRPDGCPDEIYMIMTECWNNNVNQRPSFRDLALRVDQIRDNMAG

[18] = target: Proto-oncogene tyrosine-protein kinase Src (Homo sapiens) (UniProt P12931); test: Inhibition of Src kinase activation in human HepG2 cells assessed as inhibition of phosphorylation at 10 uM by Western blot analysis; format: cell-based; settings: TDE = time-dependent effect
Chain of Proto-oncogene tyrosine-protein kinase Src (Homo sapiens) (P12931 2-536 limits assumed): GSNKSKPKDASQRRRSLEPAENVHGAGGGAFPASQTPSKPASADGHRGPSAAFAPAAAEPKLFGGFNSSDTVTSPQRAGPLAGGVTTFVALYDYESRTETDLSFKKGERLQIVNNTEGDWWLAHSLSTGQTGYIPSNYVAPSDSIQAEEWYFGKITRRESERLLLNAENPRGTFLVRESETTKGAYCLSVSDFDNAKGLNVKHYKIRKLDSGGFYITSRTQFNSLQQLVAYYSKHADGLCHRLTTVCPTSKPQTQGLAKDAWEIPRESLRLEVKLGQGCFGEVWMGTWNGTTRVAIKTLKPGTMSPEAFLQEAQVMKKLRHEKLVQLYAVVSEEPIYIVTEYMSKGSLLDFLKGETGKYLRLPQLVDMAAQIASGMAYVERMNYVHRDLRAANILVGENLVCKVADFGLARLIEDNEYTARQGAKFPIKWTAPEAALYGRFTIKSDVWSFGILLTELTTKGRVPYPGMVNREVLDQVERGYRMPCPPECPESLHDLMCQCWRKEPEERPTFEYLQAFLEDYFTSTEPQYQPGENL

[19] = target: Signal transducer and activator of transcription 3 (Homo sapiens) (UniProt P40763); test: Inhibition of STAT3 activation in human HepG2 cells assessed as maximal inhibition of phosphorylation at tyrosine 705 at 10 uM at 4 to 6 hrs by Western blot analysis; format: cell-based
[20] = target: Signal transducer and activator of transcription 3 (Homo sapiens) (UniProt P40763); test: Inhibition of STAT3 activation in human HepG2 cells assessed as inhibition of phosphorylation at tyrosine 705 at 10 uM by Western blot analysis; format: cell-based; settings: TDE = time-dependent effect
[21] = target: Signal transducer and activator of transcription 3 (Homo sapiens) (UniProt P40763); test: Inhibition of STAT3-DNA binding in human HepG2 cells after 6 hrs by ELISA based DNA binding assay; format: cell-based

C=CCN1Cc2c(nn(-c3ccc(Cl)cc3Cl)c2NS(=O)(=O)c2ccccc2)C(F)(F)C1c1ccc(OC)cc1 (stereo not given)
85.3%: inhibition at 100 µM [2]
inactive: inhibition [1]

C=CCN1Cc2c(nn(-c3ccc(Cl)cc3Cl)c2NS(=O)(=O)c2ccc(F)cc2)C(F)(F)C1c1ccc(OC)cc1 (stereo not given)
78.8%: inhibition at 100 µM [2]
inactive: inhibition [1]

C=CCN1Cc2c(nn(-c3ccc(Cl)cc3Cl)c2NC(=S)Nc2ccc(C(F)(F)F)cc2)C(F)(F)C1c1ccc(OC)cc1 (stereo not given)
84.1%: inhibition at 100 µM [2]
85.1%: inhibition at 100 µM [1]
active: inhibition [3] | inhibition [4] tde | inhibition [5] tde | inhibition [6] tde | inhibition [7] tde | inhibition [8] Dose-dependent effect | inhibition [9] Dose-dependent effect | inhibition [10] Dose-dependent effect | inhibition [11] Dose-dependent effect

C=CCN1Cc2c(nn(-c3ccc(Cl)cc3Cl)c2NC(=O)Nc2ccccc2)C(F)(F)C1c1ccc(OC)cc1 (stereo not given)
80%: inhibition at 100 µM [1]
active: inhibition [12] | inhibition [13] | inhibition [14] | inhibition [15] | inhibition [17] tde | inhibition [18] tde | inhibition [19] | inhibition [20] tde | inhibition [21] Dose-dependent effect | inhibition [4] tde | inhibition [5] tde | inhibition [6] tde | inhibition [7] tde | inhibition [8] Dose-dependent effect | inhibition [9] Dose-dependent effect | inhibition [10] Dose-dependent effect | inhibition [11] Dose-dependent effect
77.4%: inhibition at 100 µM [2]
inactive: inhibition [16]

— ChEMBL document CHEMBL3132814, “Synthesis and biological evaluation of tetrahydropyridinepyrazoles (PFPs) as inhibitors of STAT3 phosphorylation” (2014)
